Values after ≈ are worked out from the molar mass of the structure shown.
Tests used:
[1] = test system: Escherichia coli - ATCC 9637; experiment: bacteriostatic activity, dilution method in nutritive broth; type: cell-based; details: ATCC9637, read-out: Minimal bacteriostatic concentration
Description: For each organism, the lowest concentration of substance has been determined which, under the defined condition, prevents all visible development in an appropriate nutritive broth. The results of various determinations are shown in Table VI, wherein the minimal bacteriostatic concentrations are expressed as micrograms of substance per cubic centimeter of experimental medium.

[2] = test system: Shigella dysenteriae (Shiga L. - Institut Pasteur); experiment: microbe, parasite or virus in culture; type: cell-based; details: read-out: Minimal bacteriostatic concentration
[3] = test system: Salmonella typhimurium (Institut Pasteur); experiment: bacteriostatic activity, dilution method in nutritive broth; type: cell-based; details: Salmonella enterica, read-out: Minimal bacteriostatic concentration
[4] = test system: Salmonella paratyphi A (Lacasse, Institut Pasteur); experiment: as above; type: cell-based; details: Salmonella enterica, read-out: Minimal bacteriostatic concentration
[5] = test system: Salmonella schottmuelleri (paratyphi B) (Fougenc, Institut Pasteur); experiment: as above; type: cell-based; details: read-out: Minimal bacteriostatic concentration
[6] = test system: Bacillus lactis aerogenes (Fac. Phie); experiment: as above; type: cell-based; details: read-out: Minimal bacteriostatic concentration
[7] = test system: Aerobacter aerogenes - ATCC 8308; experiment: as above; type: cell-based; details: Klebsiella aerogenes, ATCC8308, read-out: Minimal bacteriostatic concentration
[8] = test system: Alcaligenes faecalis - ATCC 8749; experiment: as above; type: cell-based; details: ATCC8749, read-out: Minimal bacteriostatic concentration
[9] = test system: Proteus vulgaris (Fac. Phie); experiment: as above; type: cell-based; details: read-out: Minimal bacteriostatic concentration
Proteus X 19 = experiment: as above; type: cell-based; details: read-out: Minimal bacteriostatic concentration
[10] = test system: Klebsiella pneumoniae - ATCC 10,031; experiment: as above; type: cell-based; details: ATCC10, read-out: Minimal bacteriostatic concentration
[11] = test system: Serratia marcescens (A. 476,Lausanne); experiment: as above; type: cell-based; details: read-out: Minimal bacteriostatic concentration
[12] = test system: Pseudomonas aeruginosa (Bass strain - Institut Pasteur); experiment: as above; type: cell-based; details: read-out: Minimal bacteriostatic concentration
[13] = test system: Brucella bronchiseptica (CN 387 - Wellcome Institute); experiment: microbe, parasite or virus in culture; type: cell-based; details: Bordetella bronchiseptica, read-out: Minimal bacteriostatic concentration
[14] = test system: Pasteurella multocida (A. 125 - Institut Pasteur); experiment: bacteriostatic activity, dilution method in nutritive broth; type: cell-based; details: read-out: Minimal bacteriostatic concentration
Klebsiella pneumoniae = experiment: turbidimetric estimation of activity by comparison with a 9865 RP sample of known activity; type: cell-based; details: unit = smallest quantity in 1 cc. of medium that inhibits growth of Klebsiella pneumoniae
Description: The following non-limitative Examples illustrate the invention. […] This activity is expressed in units (u) per mg. for solid products and in units per cc. for solution. (The unit is defined as the smallest quantity of product which, dissolved in 1 cc. of an appropriate medium, inhibits the growth of Klebsiella pneumoniae under the conditions in question).

lymphosarcoma = experiment: utility in treating certain tumours; type: in vivo, human
nephroblastoma = experiment: utility in treating certain tumours; type: in vivo, human
neuroblastoma = experiment: utility in treating certain tumours; type: in vivo, human
[15] = test system: acute lymphoblastic leukemia; experiment: utility in treating certain tumours; type: in vivo, human
[16] = test system: acute myeloblastic leukemia; experiment: utility in treating certain tumours; type: in vivo, human
[17] = test system: Bacillus subtilis or Klebsiella pneumoniae; experiment: paper chromatography with bioautography on seeded agar plates; type: cell-based; details: paper chromatogram
Description: The antibiotic is chromatographed on Arches No.302 paper impregnated with a pH 4.8 phosphate buffer, with n-butanol saturated with water, using descending development. The chromatogram is developed by bioautography on nutritive agar plates seeded with Bacillus subtilis or Klebsiella pneumoniae.

solubility = type: physicochemical
blood-forming centers = experiment: clinical safety of daunorubicin: blood formation; type: in vivo; details: human treatment
[18] = clinical safety of daunorubicin: heart; type: in vivo; details: human treatment
[19] = clinical dosage in acute leukaemias: maximum safe dose; details: human, in vivo, iv, overall dosage of initial treatment, calculated per kg weight
Description: Treatment of acute leukaemias must be intensive and of short duration; depending on the case, it comprises one or more courses. In the lymphoblstic forms of leukaemia, the actual trend is to administer a daily dose of 1 mg/kg body weight of two to eight consecutive days, and to cease injections when the leucopenia reaches 1,000 to 1,500 units per cc. It will be recalled that characteristic changes in the medullary cytology fcilitate the conducting of the treatment and help in its adaptation to each particular case. […] It is, moreover, at the end of the aplastic phase, when the number of leucocytes is rising again, that adjustement of the theraputic dose is difficult. When, the day after medication was stopped the leucopenia worsens and the medullary blasts change, it is required to wait for regeneration of the blood before proceeding with a bone marrow test. If the lqucopenia is not accentuated and the medullary cytology remains high with persistence of blastic cells, a second course is undertaken. […] The overall dosage corresponding to the group of courses making up the initial treatment, such as has just been defined, is far from being uniform; calculated per kg weight, it sometimes reaches 20 mg, a dose of around 25 mg being considered the maximum safe dose. […]

[20] = acute toxicity in the mouse; details: in vivo, sc
[21] = subacute toxicity in the mouse (one dose per day for 5 days); details: in vivo

## COc1cccc2c1C(=O)c1c(O)c3c(c(O)c1C2=O)C[C@@](O)(C(C)=O)C[C@@H]3O[C@H]1C[C@H](N)[C@H](O)[C@H](C)O1 [13057 RP daunorubicin, daunorubicin]
[1]
  MIC: 500 µg/mL (≈ 948 µM)
[2]
  MIC: 2000 µg/mL (≈ 3790 µM)
[3]
  MIC: 1000 µg/mL (≈ 1900 µM)
[4]
  MIC: 16 µg/mL (≈ 30.3 µM)
[5]
  MIC: 1000 µg/mL (≈ 1900 µM)
[6]
  MIC: 120 µg/mL (≈ 227 µM)
[7]
  MIC: 1000 µg/mL (≈ 1900 µM)
[8]
  MIC: 1.8 µg/mL (≈ 3.41 µM)
[9]
  MIC: > 2000 µg/mL
Proteus X 19
  MIC: 62 µg/mL (≈ 118 µM)
[10]
  MIC: 8.9 µg/mL (≈ 16.9 µM)
[11]
  MIC: 120 µg/mL (≈ 227 µM)
[12]
  MIC: 1000 µg/mL (≈ 1900 µM)
[13]
  MIC: 62 µg/mL (≈ 118 µM)
[14]
  MIC: 1.8 µg/mL (≈ 3.41 µM)
Klebsiella pneumoniae
  activity: 160 μ/mg.
lymphosarcoma
  utility in treating tumours: proved to be of utility
nephroblastoma
  utility in treating tumours: proved to be of utility
neuroblastoma
  utility in treating tumours: proved to be of utility
[15]
  utility in treating tumours: proved to be of utility
[16]
  utility in treating tumours: proved to be of utility
[17]
  active substance by bioautography: active
solubility; alcohols
  solubility in alcohols: soluble
solubility; benzene
  solubility in benzene: practically insoluble
solubility; chloroform
  solubility in chloroform: soluble
solubility; diethyl ether
  solubility in diethyl ether: practically insoluble
solubility; ketones
  solubility in ketones: very slighly soluble
solubility; water
  solubility in water: very slighly soluble
blood-forming centers
  action on the blood-forming centers: depressant action
[18]
  cardiac complications: sometimes accompanied by cardiac complications
[19]
  MTD: ~25 mg/kg
[20]
  LD50: 47 mg/kg
[21]; iv
  LD50: 8.75 mg/kg
[21]; sc
  LD50: 13.7 mg/kg
